Values of other authors, collected in patent US20080102106A1, “Wound Healing Composition Comprising Substances From Diptera Larvae” (ALPHA-BIOCARE GMBH, priority 2005, published 2008).

Details: many cases of use in humans, dermatological studies

| Structure (SMILES) | wound healing effect |
| --- | --- |
| NC(=O)NC1NC(=O)NC1=O (stereo not drawn) [allantoin] | do not have any wound healing effect |
| N [ammonium] | do not have any wound healing effect |
| NC(N)=O [urea] | do not have any wound healing effect |
